From patent US10881110B2, “Herbicidal compositions comprising isoxazolo[5,4-b]pyridines” (BASF SE, priority 2014, dated 2021)

Legend:
Assay in all cases: greenhouse post-emergence herbicidal test
ECHCG = assay type: in vivo, Echinochloa crus-galli; parameters: key to herbicidal activity against ECHCG found / herbicidal activity against ECHCH found: scale 0 to 100; details: for herbicidal activity against ECHCG found: B.167 125 g/ha a.i.
Procedure: (§1) The culture containers used were plastic pots containing medium loamy sand with approximately 4.6% of humus and 69.9% sand as substrate. The seeds of the test plants were sown separately for each species.
(§2) For the post-emergence treatment, the test plants were grown to a plant height of from 1 to 15 cm, depending on the plant habit, and only then treated with the active compounds which had been suspended or emulsified in water. To this end, the test plants were either sown directly, and grown in the same containers, or they were first grown separately as seedlings and transplanted into the test containers a few days prior to treatment.
(§3) Depending on the species, the plants were kept at 10-25° C. and 20-35° C., respectively.
(§4) The test period extended over 1 to 3 weeks. During this time, the plants were tended and their response to the individual treatments was evaluated 20 days after treatment except mentioned otherwise.
(§5) Evaluation was carried out using a scale from 0 to 100. 100 means no emergence of the plants, or complete destruction of at least the above-ground parts, and 0 means no damage or normal course of growth.
(§6) The respective stated components A and B, and, if appropriate, C, were formulated as a 10% by weight strength emulsion concentrate and, with addition of the amount of solvent system, introduced into the spray liquor used for applying the active compound. In the examples, the solvent used was water.
(§7) In the examples below, using the method of S. R. Colby (1967) “Calculating synergistic and antagonistic responses of herbicide combinations”, Weeds 15, p. 22 ff., the value E, which is expected if the activity of the individual active compounds is only additive, was calculated. E=X+Y−(X·Y/100)

ERICA = assay type: in vivo, Conyza canadensis; details: Erigeron canadensis, post-emergence, 480 h, read-out: herbicidal activity against ERICA found
Outline: (§8)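 Combination activity judged against additive expectation by Colby, E=X+Y−(X·Y/100), from 0–100 damage ratings taken 20 days post-spray. Plants at 1–15 cm in loamy sand (69.9% sand) were sprayed with components formulated as 10% w/w emulsion concentrate in water.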

GERDI = assay type: in vivo, Geranium dissectum; parameters: key to herbicidal activity against GERDI found: rating on a scale from 0 to 100
Outline: as §8

KCHSC = assay type: in vivo, Kochia scoparia; parameters: key to herbicidal activity against KCHSC found: rating on a scale from 0 to 100; details: for herbicidal activity against KCHSC found: B.167 62.5 g/ha a.i.
Procedure: as §1, §2, §3, §4, §5, §6, §7

MATCH = assay type: in vivo, Matricaria recutita; parameters: key to herbicidal activity against MATCH found: rating on a scale from 0 to 100; details: for herbicidal activity against MATCH found: I.1 62.5 g/ha
Outline: as §8

POLCO = assay type: in vivo, Polygonum convolvulus; parameters: key to herbicidal activity against POLCO found: rating on a scale from 0 to 100
Outline: (§9)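 Herbicidal activity scored on a 0 (no damage) to 100 (plants destroyed) scale, usually 20 days after water-based spraying of 1–15 cm plants grown in loamy sand at 10-25 °C or 20-35 °C depending on species. Components were applied from 10% emulsion concentrates; Colby's E=X+Y−(X·Y/100) gives the additive expectation.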

VIOAR = assay type: in vivo, Viola arvensis; details: Viola arvensis, post-emergence, read-out: herbicidal activity against VIOAR found
Outline: as §9

ABUTH = assay type: in vivo, Abutilon theophrast; parameters: key to herbicidal activity against ABUTH found: rating on a scale from 0 to 100; details: post emergence, I.1 62.5 g/ha
Outline: as §8

ALOMY = assay type: in vivo, Alopecurus myosuroides; details: Alopecurus myosuroides, post-emergence, 480 h, post emergence, read-out: herbicidal activity against ALOMY found
Outline: as §8

APESV = assay type: in vivo, Apera spica-venti; details: Apera spica-venti, post-emergence, 480 h, post emergence, read-out: herbicidal activity against APESV found
Outline: as §8

GALAP = assay type: in vivo, Galium aparine; details: Galium aparine, post-emergence, 480 h, post emergence; aclonifen 250 g/ha a.i.; read-out: herbicidal activity against GALAP found
Outline: as §9

IPOHE = assay type: in vivo, Ipomoea hederacea; details: Ipomoea hederacea, post-emergence, 480 h, single active, 50 g/ha a.i., post emergence; read-out: herbicidal activity against IPOHE found
Procedure: as §1, §2, §3, §4, §5, §6, §7

[1] = post emergence, I.1 62.5 g/ha, B.167 125 g/ha a.i.
[2] = single active, 50 g/ha a.i., post emergence

Structure (SMILES): CS(=O)(=O)c1ccc(C(=O)C2C(=O)CCCC2=O)c(Cl)c1 [B.104, sulcotrione]
- pest or weed control at 15 g/ha (ECHCG; Echinochloa crus-galli, post-emergence, 480 h, read-out: herbicidal activity against ECHCG found): 80%
- pest or weed control at 15 g/ha (ERICA): 75%
- pest or weed control at 15 g/ha (GERDI; Geranium dissectum, post-emergence, 480 h, read-out: herbicidal activity against GERDI found): 45%
- pest or weed control at 15 g/ha (KCHSC; Bassia scoparia, post-emergence, 480 h, read-out: herbicidal activity against KCHSC found): 90%
- pest or weed control at 15 g/ha (MATCH; Matricaria chamomilla, post-emergence, 480 h, read-out: herbicidal activity against MATCH found): 10%
- pest or weed control at 15 g/ha (POLCO; Fallopia convolvulus, post-emergence, 480 h, read-out: herbicidal activity against POLCO found): 90%
- pest or weed control at 15 g/ha (VIOAR): 85%

Structure (SMILES): O=C(O)c1c(Cl)ccc2cc(Cl)cnc12 [B.167, quinclorac]
- herbicidal activity against ABUTH found (ABUTH; B.167 62.5 g/ha a.i.): 65
- herbicidal activity against ABUTH found (ABUTH; B.167 125 g/ha a.i.): 70
- herbicidal activity against ECHCG found (ECHCG; post emergence, I.1 15.62 g/ha): 20
- herbicidal activity against ECHCG found (ECHCG; post emergence, I.1 31.25 g/ha): 20
- herbicidal activity against GERDI found (GERDI; [1]): 0
- herbicidal activity against KCHSC found (KCHSC; post emergence, I.1 31.25 g/ha): 0
- herbicidal activity against KCHSC found (KCHSC; post emergence, I.1 62.5 g/ha): 0
- herbicidal activity against MATCH found (MATCH; post emergence, B.167 62.5 g/ha a.i.): 0
- herbicidal activity against MATCH found (MATCH; post emergence, B.167 125 g/ha a.i.): 30
- herbicidal activity against POLCO found (POLCO; post emergence, I.1 15.62 g/ha, B.167 62.5 g/ha a.i.): 0
- herbicidal activity against POLCO found (POLCO; post emergence, I.1 15.62 g/ha, B.167 125 g/ha a.i.): 30
- herbicidal activity against POLCO found (POLCO; post emergence, I.1 62.5 g/ha, B.167 62.5 g/ha a.i.): 0
- herbicidal activity against POLCO found (POLCO; [1]): 30

Structure (SMILES): Cc1cnc2c(C(=O)O)c(Cl)ccc2c1 [B.169, quinmerac]
- pest or weed control at 62.5 g/ha (ALOMY; B.169 62.5 g/ha a.i.): 0%
- pest or weed control at 62.5 g/ha (APESV; B.169 62.5 g/ha a.i.): 0%
- pest or weed control at 62.5 g/ha (ECHCG; Echinochloa crus-galli, post-emergence, 480 h, post emergence, B.169 62.5 g/ha a.i., read-out: herbicidal activity against ECHCG found): 0%
- pest or weed control at 62.5 g/ha (ERICA; post emergence, B.169 62.5 g/ha a.i.): 65%
- pest or weed control at 125 g/ha (ERICA; post emergence, B.169 125 g/ha a.i.): 75%
- pest or weed control at 62.5 g/ha (KCHSC; Bassia scoparia, post-emergence, 480 h, post emergence, B.169 62.5 g/ha a.i., read-out: herbicidal activity against KCHSC found): 10%
- pest or weed control at 125 g/ha (KCHSC; Bassia scoparia, post-emergence, 480 h, post emergence, B.169 125 g/ha a.i., read-out: herbicidal activity against KCHSC found): 25%

Structure (SMILES): Nc1c([N+](=O)[O-])ccc(Oc2ccccc2)c1Cl [aclonifen]
- pest or weed control at 250 g/ha (ALOMY; aclonifen 250 g/ha a.i.): 30%
- pest or weed control at 500 g/ha (ALOMY; aclonifen 500 g/ha a.i.): 60%
- pest or weed control at 1000 g/ha (ALOMY; aclonifen 1000 g/ha a.i.): 70%
- pest or weed control at 250 g/ha (ECHCG; Echinochloa crus-galli, post-emergence, 480 h, post emergence, aclonifen 250 g/ha a.i., read-out: herbicidal activity against ECHCG found): 50%
- pest or weed control at 500 g/ha (ECHCG; Echinochloa crus-galli, post-emergence, 480 h, post emergence, aclonifen 500 g/ha a.i., read-out: herbicidal activity against ECHCG found): 80%
- pest or weed control at 500 g/ha (ERICA; post emergence, aclonifen 500 g/ha a.i.): 0%
- pest or weed control at 1000 g/ha (ERICA; post emergence, aclonifen 1000 g/ha a.i.): 0%
- pest or weed control at 250 g/ha (GALAP): 80%
- pest or weed control at 250 g/ha (GERDI; Geranium dissectum, post-emergence, 480 h, post emergence, aclonifen 250 g/ha a.i., read-out: herbicidal activity against GERDI found): 30%
- pest or weed control at 500 g/ha (GERDI; Geranium dissectum, post-emergence, 480 h, post emergence, aclonifen 500 g/ha a.i., read-out: herbicidal activity against GERDI found): 70%
- pest or weed control at 250 g/ha (MATCH; Matricaria chamomilla, post-emergence, 480 h, post emergence, aclonifen 250 g/ha a.i., read-out: herbicidal activity against MATCH found): 0%
- pest or weed control at 500 g/ha (MATCH; Matricaria chamomilla, post-emergence, 480 h, post emergence, aclonifen 500 g/ha a.i., read-out: herbicidal activity against MATCH found): 0%
- pest or weed control at 1000 g/ha (MATCH; Matricaria chamomilla, post-emergence, 480 h, post emergence, aclonifen 1000 g/ha a.i., read-out: herbicidal activity against MATCH found): 0%
- pest or weed control at 250 g/ha (POLCO; Fallopia convolvulus, post-emergence, 480 h, post emergence, aclonifen 250 g/ha a.i., read-out: herbicidal activity against POLCO found): 85%
- pest or weed control at 500 g/ha (POLCO; Fallopia convolvulus, post-emergence, 480 h, post emergence, aclonifen 500 g/ha a.i., read-out: herbicidal activity against POLCO found): 95%
- pest or weed control at 1000 g/ha (POLCO; Fallopia convolvulus, post-emergence, 480 h, post emergence, aclonifen 1000 g/ha a.i., read-out: herbicidal activity against POLCO found): 85%

Structure (SMILES): CC(C)N(C(=O)COc1nnc(C(F)(F)F)s1)c1ccc(F)cc1 [B.130, flufenacet]
- pest or weed control at 50 g/ha (ALOMY; single active, 50 g/ha a.i.): 40%
- pest or weed control at 100 g/ha (ALOMY; single active, 100 g/ha a.i.): 65%
- pest or weed control at 50 g/ha (APESV; single active, 50 g/ha a.i.): 85%
- pest or weed control at 100 g/ha (ECHCG; Echinochloa crus-galli, post-emergence, 480 h, single active, 100 g/ha a.i., post emergence, read-out: herbicidal activity against ECHCG found): 65%
- pest or weed control at 50 g/ha (ERICA; [2]): 0%
- pest or weed control at 50 g/ha (GERDI; Geranium dissectum, post-emergence, 480 h, single active, 50 g/ha a.i., post emergence, read-out: herbicidal activity against GERDI found): 10%
- pest or weed control at 100 g/ha (GERDI; Geranium dissectum, post-emergence, 480 h, single active, 100 g/ha a.i., post emergence, read-out: herbicidal activity against GERDI found): 10%
- pest or weed control at 50 g/ha (IPOHE): 60%
- pest or weed control at 50 g/ha (KCHSC; Bassia scoparia, post-emergence, 480 h, single active, 50 g/ha a.i., post emergence, read-out: herbicidal activity against KCHSC found): 0%
- pest or weed control at 50 g/ha (MATCH; Matricaria chamomilla, post-emergence, 480 h, single active, 50 g/ha a.i., post emergence, read-out: herbicidal activity against MATCH found): 0%
- pest or weed control at 100 g/ha (MATCH; Matricaria chamomilla, post-emergence, 480 h, single active, 100 g/ha a.i., post emergence, read-out: herbicidal activity against MATCH found): 20%
- pest or weed control at 50 g/ha (POLCO; Fallopia convolvulus, post-emergence, 480 h, single active, 50 g/ha a.i., post emergence, read-out: herbicidal activity against POLCO found): 10%
- pest or weed control at 100 g/ha (POLCO; Fallopia convolvulus, post-emergence, 480 h, single active, 100 g/ha a.i., post emergence, read-out: herbicidal activity against POLCO found): 10%
- pest or weed control at 50 g/ha (VIOAR; [2]): 80%
